Source: patent US8541457B2, “Aminothiazole derivatives as human stearoyl-CoA desaturase inhibitors” (Xenon Pharmaceuticals Inc., priority 2005, dated 2013)

Row | Structure (SMILES) | melting point [°C]
1 | Cc1nc(NC(=O)Nc2ccc(Cl)cc2)sc1C(=O)NCc1ccccc1 [Example 4.2, 2-[3-(4-Chlorophenyl)ureido]-4-methylthiazole-5-carboxylic Acid Benzylamide] | > 300
2 | Cc1nc(NC(=O)c2ccc(-c3nn[nH]n3)cc2)sc1C(=O)NCc1ccccc1 [Example 6, 4-Methyl-2-[4-(2H-tetrazol-5-yl)benzoylamino]thiazole-5-carboxylic Acid Benzylamide] | > 300
3 | Cc1nc(NC(=O)c2ccccc2)sc1C(=O)NCC1CC1 [Example 7, 2-Benzoylamino-4-methylthiazole-5-carboxylic Acid Cyclopropylmethylamide] | 163 to 166
4 | Cc1nc(NC(=O)c2ccccc2)sc1C(=O)NCc1cccc(Cl)c1 [Example 7.1, 2-Benzoylamino-4-methylthiazole-5-carboxylic Acid 3-Chlorobenzylamide] | 198 to 199
5 | Cc1nc(NC(=O)c2ccccc2)sc1C(=O)NCc1cccc(F)c1 [Example 7.2, 2-Benzoylamino-4-methylthiazole-5-carboxylic Acid 3-Fluorobenzylamide] | 216 to 217
6 | Cc1nc(NC(=O)c2ccccc2)sc1C(=O)NCc1ccccc1F [Example 7.3, 2-Benzoylamino-4-methylthiazole-5-carboxylic Acid 2-Fluorobenzylamide] | 180 to 183
7 | Cc1nc(NC(=O)c2ccccc2)sc1C(=O)NCc1ccccc1Cl [Example 7.4, 2-Benzoylamino-4-methylthiazole-5-carboxylic acid 2-chlorobenzylamide] | 191 to 193
8 | Cc1nc(NC(=O)c2ccccc2)sc1C(=O)NCc1ccccc1C(F)(F)F [Example 7.5, 2-Benzoylamino-4-methylthiazole-5-carboxylic Acid 2-Trifluoromethylbenzylamide] | 198 to 199
9 | Cc1nc(NC(=O)c2ccccc2)sc1C(=O)NCc1ccc(F)cc1 [Example 7.6, 2-Benzoylamino-4-methylthiazole-5-carboxylic Acid 4-Fluorobenzylamide] | 206 to 208
10 | Cc1nc(NCc2ccccc2)sc1C(=O)NCc1ccccc1 [Example 8, 2-Benzylamino-4-methylthiazole-5-carboxylic Acid Benzylamide] | 169 to 172
11 | Cc1nc(NC(=O)c2ccccc2)sc1C(=O)NNC(=O)c1ccccc1 [Example 9, N-(5-(2-Benzoylhydrazinecarbonyl)-4-methylthiazol-2-yl)benzamide] | 258 to 260
12 | Cc1nc(NC(=O)c2ccccc2)sc1C(=O)n1ccnc1 [Example 10, N-(5-(1H-Imidazole-1-carbonyl)-4-methylthiazol-2-yl)benzamide] | 228 to 231
13 | COc1cc(C(=O)Nc2nc(C)c(C(=O)NCc3ccccc3)s2)ccn1 [Example 13, N-Benzyl-2-(2-methoxyisonicotinamido)-4-methylthiazole-5-carboxamide] | 188 to 190
14 | Cc1nc(NC(=O)c2cc[nH]c(=O)c2)sc1C(=O)NCc1ccccc1 [Example 14, N-Benzyl-4-methyl-2-(2-oxo-1,2-dihydropyridine-4-carboxamido)thiazole-5-carboxamide] | 290 to 292
15 | Cc1nc(NC(=O)c2ccn(-c3ccccc3)c(=O)c2)sc1C(=O)NCc1ccccc1 [Example 15, N-Benzyl-4-methyl-2-(2-oxo-1-phenyl-1,2-dihydropyridine-4-carboxamido)thiazole-5-carboxamide] | 260 to 262
